From patent US20220160680A1, “MICROORGANISM MIXTURES, MOLECULES DERIVED THEREFROM, AND METHODS OF USE THEREOF” (B. G. Negev Technologies and Applications Ltd., at …, priority 2018, published 2022)
Entries after “also recorded” stand apart in the source; their conditions may differ. Read-outs that look alike come from different tables or passages of the source.

Columns and labels:
[1] = tested on: Vibrio cholerae MM920; assay: Quorum sensing bioluminescence reporter assay; type: cell-based; settings: for IC50: Vibrio cholerae, read-out: IC50 of QS inhibition in V. cholera
Protocol: Bioluminescence assay was performed with mutant bacteria lacking the nucleotide sequences encoding the relevant autoinducers (AI). Additionally, the bacteria were cloned with bioluminescence reporter plasmids in order to measure their luminescence intensity when quorum sensing gene expression occurs. Ninety-six (96) well microtiter plate assays were used to assess AI activation (agonist) or inhibition (antagonist) of the following bacteria: Agrobacterium tumefaciens, which responds to the C8 autoinducer, and both Vibrio cholerae and Vibrio harveyi, which respond to the (S)-4,5-dihydroxy-2,3-pentanedione (DPD) autoinducer to communicate.
Agrobacterium tumefaciens A136 pCF218 pMV26 culture was grown in Luria-Bertani broth (LB; Miller's broth) supplemented with 25 μg/ml of kanamycin and 4.5 μg/ml of tetracycline at 28-30° C. for 24 h. Both Vibrio harveyi and Vibrio cholerae strains were grown in LB Broth (Lennox) supplemented with tetracycline at 30° C. for 24 h. The overnight cultures were diluted to an absorbance density (OD600) of 0.05 by fresh LB medium. The probiotic yogurt (e.g., kefir)-extracted molecules were tested at gradient concentration in two types of experiments: competition assay in the absence (activation/agonist) or presence (inhibition/antagonist) of 400 pM 3-oxo-C8-HSL (A. tumefaciens A136 pCF218 pMV26) CAI1 (Vibrio Cholerae MM920) 200 nM DPD (Vibrio harveyi MM30) and the OD600 of 0.05 by fresh LB medium. A clear bottom 96-well microliter plate was prepared with wells containing test compounds serially diluted into the LB medium (triplicates). A total of 100 μl of the diluted cells were added to each well. The control sample contained the bacteria and specific AI molecules without the yogurt extracted molecules. Luminescence was measured every 20 min for 19 h with continuous shaking at 30° C., using a Microtiter Plate Reader (Varioskan Flash, Thermo). Average luminescence values divided by OD600 values were plotted against the added compound concentration.
The effect of the Kefir biomass crude extract molecules on the following bacteria, A. tumefaciens A136, V. cholerae MM920 and V. harveyi MM30 were measured as described by Brenier et al. (2008). The overnight culture was diluted to an absorbance density (OD600) of 0.05 by fresh LB medium. A clear bottom 96-well microliter plate was prepared with wells containing test compounds serially diluted into the LB medium (triplicates). A total of 100 μL of the diluted cells was added to each well. The control sample contained the bacteria and specific autoinducer molecules without the kefir crude extracted molecules. Luminescence was measured every 20 min for 19 h with continuous shaking at 30° C., using a Microtiter Plate Reader (Varioskan Flash, Thermo). Two types of experiments were performed: a competition assay in the presence of 400 pM 3-oxo-C8-HSL (A. tumefaciens A136), CAI-1 (V. Cholerae MM920) 200 nM DPD (V. harveyi MM30) and the other in the absence of these AI's to measure agonistic activity of the crude extracted molecules. Average luminescence values divided by OD600 values were plotted against the added compound concentration.

[2] = tested on: V. cholerae VC1 (WT) and MM920; assay: V. cholerae biofilm modulation (CLSM, crystal violet); type: cell-based, Vibrio cholerae
Protocol: The various pathogenic indicator strains used in this study were V. cholerae strain MM920 (ACqsA AluxQ), Vibrio harveyi strain MM30 (LuxS, Tn5). To initiate biofilm formation, bacteria was grown in the absence of the V. cholerae autoinducer 1 (CAI1). In addition, the bacteria were grown in presence of: 900 nM CAI1 (Vibrio Cholerae MM920), 900 nM CAI1, 200 μM Tryptophol acetate and 200 μM Tyrosol acetate, and 200 μM Tryptophol acetate and 200 μM Tyrosol acetate.
Biofilms were grown under shaking conditions at 30° C. in 96-well plate (Thermo Scientific, Rochester, N.Y., USA). […] The stained cells were washed twice with PBS. Biofilm images were taken by CLSM (Plan-Apochromat 20×/0.8 M27, Zeiss LSM880, Germany).
For static biofilm assay, overnight cultures of V. cholerae strain MM920 was diluted 1:10 in fresh LB medium containing a final concentration of 100 μM from each Tryptophol acetate and Tyrosol acetate or DMSO (up to 1%) as control. […] One in absence of the V. cholerae autoinducer (CAI-1) and the other one in presence of 900 nM CAI-1. Biofilms were grown under non-shaking conditions at 37° C. in 96-well plate (Thermo Scientific, Rochester, N.Y., USA). […] The stained cells were washed twice with PBS. Biofilm images were taken by CLSM (Plan-Apochromat 20×/0.8 M27, Zeiss LSM880, Germany).
Biofilm matrixes of V. cholerae VC1 WT (FIGS. 23Ai and 23Aii), and the V. cholerae MM920 mutant (FIGS. 23Aiii and 23Aiv) were grown for 24 hours with or without tryptophol acetate in the growth medium, and stained using the BacLight® Dead/Live Kit to distinguish viable cells.

[3] = tested on: V. cholerae toxin; assay: GM1-ELISA cholerae toxin detection assay; type: cell-based, Vibrio cholerae
Protocol: GM1 (monosialotetrahexosylganglioside) was seeded and immobilized on a 96-well white/clear bottom microtiter plate (Greiner) microtiter plates with the following procedure: GM1 stock solution (2 mg/mL in PBS) was diluted with PBS (final conc. 10 μg/mL). 200 μL of the GM1 solution was added to each well and incubated at 37° C. without shaking for 4-16 hours. The plates were washed with PBS (×3). Bovine serum albumin (BSA) was dissolved in PBS (final conc. 4 mg/mL) and 200 μL of the BSA-PBS were added to each well and incubated at 37° C. without shaking for at least 4 hours. The plates were washed with PBS (×3) and were stored in fridge until use. VC1 wild-type strain with of the tested compounds (Tryptophol acetate and Tyrosol acetate both in concentration of 100 μM) and a control with bacteria only, were grown and incubated with aeration and shaking overnight in LB medium at 30° C. The cultures were spinned-down for 5 min at 5,000 rcf and the supernatant was taken and diluted 1:2 with a BSA-PBS 4 mg/mL solution. […] 100 μL of the luminol working solution were added to each well, the plate was shaken for 1.5-2 minutes and the luminescence was measured using a Microtiter Plate Reader (Varioskan Flash, Thermo). Luminescence values were normalized to the control.

[4] = tested on: Peritoneal macrophages; assay: In vitro LPS stimulation of peritoneal macrophages, cytokine ELISA (24 hr); type: cell-based, mice; settings: 100 μM, 0.1 μg/ml LPS
Protocol: Peritoneal macrophages were harvested using the protocol as described previously (Zhang et al., 2008). Elicited macrophages were harvested from WT mice which had received a 2.5 ml intraperitoneal administration of 3% Brewer thioglycolate broth (Sigma, UK) 72 hr prior collection.
Peritoneal macrophages cells (5×10^5/ml) were cultured with 0.1 μg/ml Lipopolysaccharides (LPS-Escherichia coli serotype 0127:B8, Sigma-Aldrich) and in the presence of 100 μM: tryptophol acetate, tyrosol acetate, dopamine HCl, caffeic acid, or combination of tryptophol acetate and tyrosol acetate, for 24 hr. Following culture, supernatants were collected and stored at −20° C. for the detection of the IL-6 cytokine. For IL-la detection, the inventors induced macrophages lysis by adding fresh RPMI medium and thawing three times.
IL-la and IL-6 levels were measured in peritoneal exudate fluids and LPS-stimulated culture supernatants by ELISA. To detect the cytokines, a R&D ELISA kit (Catalog #MLA00 and DY406, respectively) was used as per the manufacturer's instructions. A standard curve was constructed using serial dilutions of purified IL-la or IL-6 starting at a concentration of 15 ng/ml.

[5] = DPPH radical absorbance assay; type: biochemical; settings: 517 nm
Description: FIGS. 34A-34B are graphs showing the anti-oxidation effect of tryptophol acetate and tyrosol acetate. Anti-oxidative capacity of the molecules as measured by DPPH (34A) and ORAC (34B) assays. 34A. The results are presented as a percentage of absorbance inhibition (517 nm, the absorbance maximum of DPPH) in the presence of tryptophol acetate (1) alone, tyrosol acetate alone (2) alone, and 1+2 together. 34B. Fluorescence decay of fluorescein induced by AAPH in the absence or presence of 1 and 2. Reaction mixtures containing fluorescein (60 nM) and AAPH (18.75 mM) in 200 μl of phosphate buffer (75 mM, pH 7.4) were incubated at 37° C. for 800 min. Changes in fluorescence intensity emitted by fluorescein were monitored. Results are presented as the net area under the curve (AUC). Each value is the mean±SD of triplicate experiments. ***p<0.0001
The inventors analyzed the anti-oxidation properties of the molecules (FIG. 34) as oxidation processes and generation of reactive oxidative species (ROS) are recognized as contributing to toxic effects in diverse diseases and pathological conditions. FIG. 34 depicts application of a spectrophotometric assay monitoring the visible absorbance of the 2,2-diphenyl-1-picrylhydrazyl (DPPH) radical, which is widely employed for evaluating the anti-oxidation activity of biomolecules. […]

SMILES	IC50 [1] [µM]	Effect on QS in V. cholera, high volume ([1]; high volume)	Effect on QS in V. cholera, high volume ([1]; high volume, listed as 180 molecule)	Effect on QS in V. cholera, low volume [1]	Effect on QS in V. cholera, low volume ([1]; listed as 180 molecule)	V. cholerae biofilm production ([2]; 100 μM)	V. cholerae toxin levels [3]	Production of IL-6 [4]	Production of IL-la [4]	Quenching of DPPH absorbance [5] [%]	IC50 ([1]; high volume) [µM]	Biofilm volume, crystal violet (CV) assay ([2]; 0-200 μM, 24 hr)	Biofilm of V. cholerae MM920 with CAI-1 ([2]; 900 nM CAI-1 and 100 μM)	Biofilm matrix of V. cholerae VC1 WT ([2]; 100 μM, 24 hours)
CC(=O)OCCc1ccc(O)cc1 [Tyrosol acetate]	24.4 ± 2.4	totally inhibits QS	totally inhibited QS	activates QS	activated QS	inhibit	inhibit; also recorded: reduction of toxin production by V. cholerae in a dose dependent manner	dramatically reduced	dramatically reduced	~3				
CC(=O)OCCc1c[nH]c2ccccc12 [Tryptophol acetate]		inhibits QS		activates QS			reduce V. cholerae toxin levels in a dose dependent manner	dramatically reduced	dramatically reduced	10	12.7 ± 2	increased biofilm volume	re-formation of a dense and uniform biofilm layer	significantly denser biofilm
